Laboratory results taken from PMC5605198, “MELK is not necessary for the proliferation of basal-like breast cancer cells” (eLife, 2017).
Like-named read-outs stand apart in the source and are kept apart here.

Key:
PIK3CA = PIK3CA (Homo sapiens, UniProt P42336); assay: Adapta kinase assay; details: Adapta assay at [ATP]=apparent Km; read-out: Biochemical IC50 PIK3CA
CDK7 = CDK7 (Homo sapiens, UniProt P50613); assay: Adapta kinase assay; details: Adapta assay at [ATP]=apparent Km; read-out: Biochemical IC50 CDK7
141 kinases = assay: ICKP panel radiometric kinase profiling (summary); type: biochemical; details: radioactive filter-binding assay; kinases inhibited more strongly than MELK in the ICKP panel; read-out: IC50 values of potential off-target kinases
[1] = system: select off-target kinases; assay: Off-target kinase inhibition (Z’-LYTE/Adapta), comparison; type: biochemical; details: from Table 1 IC50 values
MKK6 = MKK6 (Homo sapiens, UniProt P52564); assay: ICKP radiometric kinase assay; type: biochemical; details: read-out: % AR (% kinase activity remaining)
JNK1 = JNK1 (Homo sapiens, UniProt P45983); assay: ICKP radiometric kinase assay; type: biochemical; details: read-out: % AR (% kinase activity remaining)
p38 beta = p38 beta (Homo sapiens, UniProt Q15759); assay: ICKP radiometric kinase assay; type: biochemical; details: read-out: % AR (% kinase activity remaining)
RSK2 = RSK2 (Homo sapiens, UniProt P51812); assay: ICKP radiometric kinase assay; type: biochemical; details: read-out: % AR (% kinase activity remaining)
PKB beta = PKB beta (Homo sapiens, UniProt P31751); assay: ICKP radiometric kinase assay; type: biochemical; details: read-out: % AR (% kinase activity remaining)
S6K1 = S6K1 (Homo sapiens, UniProt P23443); assay: ICKP radiometric kinase assay; type: biochemical; details: read-out: % AR (% kinase activity remaining)
ROCK 2 = ROCK 2 (Homo sapiens, UniProt O75116); assay: ICKP radiometric kinase assay; type: biochemical; details: read-out: % AR (% kinase activity remaining)
PRK2 = PRK2 (Homo sapiens, UniProt Q16513); assay: ICKP radiometric kinase assay; type: biochemical; details: read-out: % AR (% kinase activity remaining)
PKC alpha = PKC alpha (Homo sapiens, UniProt P17252); assay: ICKP radiometric kinase assay; type: biochemical; details: read-out: % AR (% kinase activity remaining)
PRAK = PRAK (Homo sapiens, UniProt Q8IW41); assay: ICKP radiometric kinase assay; type: biochemical; details: read-out: % AR (% kinase activity remaining)
PHK = assay: ICKP radiometric kinase assay; type: biochemical; details: 1 μM
DAPK1 = DAPK1 (Homo sapiens, UniProt P53355); assay: ICKP radiometric kinase assay; type: biochemical; details: read-out: % AR (% kinase activity remaining)
GSK3 beta = GSK3 beta (Homo sapiens, UniProt P49841); assay: ICKP radiometric kinase assay; type: biochemical; details: read-out: % AR (% kinase activity remaining)
CDK2-Cyclin A = CDK2-Cyclin A (Homo sapiens, UniProt P24941); assay: ICKP radiometric kinase assay; type: biochemical; details: read-out: % AR (% kinase activity remaining)
PLK1 = PLK1 (Homo sapiens, UniProt P53350); assay: ICKP radiometric kinase assay; type: biochemical; details: read-out: % AR (% kinase activity remaining)
TLK1 = TLK1 (Homo sapiens, UniProt Q9UKI8); assay: ICKP radiometric kinase assay; type: biochemical; details: read-out: % AR (% kinase activity remaining)
Chain of TLK1 (Q9UKI8 whole entry): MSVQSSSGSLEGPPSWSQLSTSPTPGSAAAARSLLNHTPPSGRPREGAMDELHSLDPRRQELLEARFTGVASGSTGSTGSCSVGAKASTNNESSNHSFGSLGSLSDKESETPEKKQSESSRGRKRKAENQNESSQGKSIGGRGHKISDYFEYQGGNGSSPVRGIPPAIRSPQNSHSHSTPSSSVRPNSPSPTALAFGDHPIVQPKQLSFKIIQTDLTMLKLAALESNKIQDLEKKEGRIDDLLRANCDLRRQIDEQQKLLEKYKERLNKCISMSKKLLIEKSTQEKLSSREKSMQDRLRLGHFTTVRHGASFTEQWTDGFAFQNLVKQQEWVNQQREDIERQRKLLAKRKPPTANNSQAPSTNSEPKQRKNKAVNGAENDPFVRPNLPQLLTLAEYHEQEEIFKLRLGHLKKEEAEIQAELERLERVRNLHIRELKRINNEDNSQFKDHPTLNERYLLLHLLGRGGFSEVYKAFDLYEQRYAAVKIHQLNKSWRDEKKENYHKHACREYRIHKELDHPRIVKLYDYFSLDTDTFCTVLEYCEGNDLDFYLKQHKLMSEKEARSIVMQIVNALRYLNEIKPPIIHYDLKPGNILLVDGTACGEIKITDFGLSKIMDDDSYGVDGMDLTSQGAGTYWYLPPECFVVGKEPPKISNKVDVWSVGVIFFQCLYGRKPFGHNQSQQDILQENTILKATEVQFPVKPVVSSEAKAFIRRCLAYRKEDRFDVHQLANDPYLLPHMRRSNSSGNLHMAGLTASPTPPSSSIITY

SIK2 = SIK2 (Homo sapiens, UniProt Q9H0K1); assay: ICKP radiometric kinase assay; type: biochemical; details: read-out: % AR (% kinase activity remaining)
TSSK1 = TSSK1 (Homo sapiens, UniProt Q9BXA7); assay: ICKP radiometric kinase assay; type: biochemical; details: read-out: % AR (% kinase activity remaining)
CK1 gamma 2 = CK1 gamma 2 (Homo sapiens, UniProt P78368); assay: ICKP radiometric kinase assay; type: biochemical; details: read-out: % AR (% kinase activity remaining)
CK2 = CK2 (Homo sapiens, UniProt P68400); assay: ICKP radiometric kinase assay; type: biochemical; details: read-out: % AR (% kinase activity remaining)
DYRK1A = DYRK1A (Homo sapiens, UniProt Q13627); assay: ICKP radiometric kinase assay; type: biochemical; details: read-out: % AR (% kinase activity remaining)
IKK epsilon = IKK epsilon (Homo sapiens, UniProt Q14164); assay: ICKP radiometric kinase assay; type: biochemical; details: read-out: % AR (% kinase activity remaining)
PIM3 = PIM3 (Homo sapiens, UniProt Q86V86); assay: ICKP radiometric kinase assay; type: biochemical; details: read-out: % AR (% kinase activity remaining)
EIF2AK3 = EIF2AK3 (Homo sapiens, UniProt Q9NZJ5); assay: ICKP radiometric kinase assay; type: biochemical; details: read-out: % AR (% kinase activity remaining)
HIPK3 = HIPK3 (Homo sapiens, UniProt Q9H422); assay: ICKP radiometric kinase assay; type: biochemical; details: read-out: % AR (% kinase activity remaining)
MLK3 = MLK3 (Homo sapiens, UniProt Q16584); assay: ICKP radiometric kinase assay; type: biochemical; details: read-out: % AR (% kinase activity remaining)
IRAK4 = IRAK4 (Homo sapiens, UniProt Q9NWZ3); assay: ICKP radiometric kinase assay; type: biochemical; details: read-out: % AR (% kinase activity remaining)
MPSK1 = MPSK1 (Homo sapiens, UniProt O75716); assay: ICKP radiometric kinase assay; type: biochemical; details: read-out: % AR (% kinase activity remaining)
ULK2 = ULK2 (Homo sapiens, UniProt Q8IYT8); assay: ICKP radiometric kinase assay; type: biochemical; details: read-out: % AR (% kinase activity remaining)
Chain of ULK2 (Q8IYT8 whole entry): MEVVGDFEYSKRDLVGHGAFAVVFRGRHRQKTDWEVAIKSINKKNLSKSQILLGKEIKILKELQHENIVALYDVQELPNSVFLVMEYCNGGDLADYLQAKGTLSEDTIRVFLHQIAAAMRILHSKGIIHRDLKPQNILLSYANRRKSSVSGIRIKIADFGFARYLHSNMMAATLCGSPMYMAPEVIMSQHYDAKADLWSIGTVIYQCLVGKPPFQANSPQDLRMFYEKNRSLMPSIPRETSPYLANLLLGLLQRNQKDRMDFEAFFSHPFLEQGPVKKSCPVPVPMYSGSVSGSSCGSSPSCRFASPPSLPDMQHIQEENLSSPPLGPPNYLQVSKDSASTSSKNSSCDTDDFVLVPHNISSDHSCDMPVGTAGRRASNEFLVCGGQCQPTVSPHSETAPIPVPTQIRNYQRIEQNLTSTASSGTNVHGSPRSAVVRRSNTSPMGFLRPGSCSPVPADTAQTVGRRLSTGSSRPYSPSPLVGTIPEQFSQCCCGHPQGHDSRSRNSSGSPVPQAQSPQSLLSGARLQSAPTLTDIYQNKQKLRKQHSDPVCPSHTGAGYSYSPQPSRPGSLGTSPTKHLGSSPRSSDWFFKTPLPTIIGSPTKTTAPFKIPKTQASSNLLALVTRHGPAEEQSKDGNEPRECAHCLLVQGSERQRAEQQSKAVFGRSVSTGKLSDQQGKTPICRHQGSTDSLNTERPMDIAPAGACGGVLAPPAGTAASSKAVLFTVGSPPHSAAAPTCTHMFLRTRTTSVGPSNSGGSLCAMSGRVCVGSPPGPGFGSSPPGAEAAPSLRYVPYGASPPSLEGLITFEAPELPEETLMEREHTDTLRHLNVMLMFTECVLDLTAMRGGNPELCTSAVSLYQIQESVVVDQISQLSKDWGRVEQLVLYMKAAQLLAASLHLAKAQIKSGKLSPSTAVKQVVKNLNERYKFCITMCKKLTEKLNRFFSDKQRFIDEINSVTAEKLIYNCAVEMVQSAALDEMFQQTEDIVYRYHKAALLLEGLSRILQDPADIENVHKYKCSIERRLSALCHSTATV

Src = Src (Homo sapiens, UniProt P12931); assay: ICKP radiometric kinase assay; type: biochemical; details: read-out: % AR (% kinase activity remaining)
CSK = CSK (Homo sapiens, UniProt P41240); assay: ICKP radiometric kinase assay; type: biochemical; details: read-out: % AR (% kinase activity remaining)
Chain of CSK (P41240 whole entry): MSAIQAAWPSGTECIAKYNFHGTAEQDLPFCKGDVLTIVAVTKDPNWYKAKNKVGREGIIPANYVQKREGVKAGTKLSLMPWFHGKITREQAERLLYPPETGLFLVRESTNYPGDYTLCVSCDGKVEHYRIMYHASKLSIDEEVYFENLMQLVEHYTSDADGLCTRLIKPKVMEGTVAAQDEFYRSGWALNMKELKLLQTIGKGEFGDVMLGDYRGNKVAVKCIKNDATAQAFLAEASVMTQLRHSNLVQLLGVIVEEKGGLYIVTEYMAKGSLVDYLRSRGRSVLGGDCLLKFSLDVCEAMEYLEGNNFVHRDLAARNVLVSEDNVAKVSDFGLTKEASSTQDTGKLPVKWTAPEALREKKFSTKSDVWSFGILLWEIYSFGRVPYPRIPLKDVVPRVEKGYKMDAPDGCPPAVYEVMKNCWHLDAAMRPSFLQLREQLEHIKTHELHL

BRK = BRK (Homo sapiens, UniProt Q13882); assay: ICKP radiometric kinase assay; type: biochemical; details: read-out: % AR (% kinase activity remaining)
EPH-A2 = EPH-A2 (Homo sapiens, UniProt P29317); assay: ICKP radiometric kinase assay; type: biochemical; details: read-out: % AR (% kinase activity remaining)
EPH-A4 = EPH-A4 (Homo sapiens, UniProt P54764); assay: ICKP radiometric kinase assay; type: biochemical; details: read-out: % AR (% kinase activity remaining)
EPH-B2 = EPH-B2 (Homo sapiens, UniProt P29323); assay: ICKP radiometric kinase assay; type: biochemical; details: read-out: % AR (% kinase activity remaining)
MDA-MB-468 = assay: Cell proliferation assay (CellTiter-Glo); details: Homo sapiens
MELK = MELK (Homo sapiens, UniProt Q14680); details: ref Chung et al., 2012; cited from earlier work
[2] = MDA-MB-468, 72 h, read-out: 3-day antiproliferative IC50
[3] = MDA-MB-468, 168 h, read-out: 7-day antiproliferative IC50

Chain of PIK3CA (P42336 whole entry): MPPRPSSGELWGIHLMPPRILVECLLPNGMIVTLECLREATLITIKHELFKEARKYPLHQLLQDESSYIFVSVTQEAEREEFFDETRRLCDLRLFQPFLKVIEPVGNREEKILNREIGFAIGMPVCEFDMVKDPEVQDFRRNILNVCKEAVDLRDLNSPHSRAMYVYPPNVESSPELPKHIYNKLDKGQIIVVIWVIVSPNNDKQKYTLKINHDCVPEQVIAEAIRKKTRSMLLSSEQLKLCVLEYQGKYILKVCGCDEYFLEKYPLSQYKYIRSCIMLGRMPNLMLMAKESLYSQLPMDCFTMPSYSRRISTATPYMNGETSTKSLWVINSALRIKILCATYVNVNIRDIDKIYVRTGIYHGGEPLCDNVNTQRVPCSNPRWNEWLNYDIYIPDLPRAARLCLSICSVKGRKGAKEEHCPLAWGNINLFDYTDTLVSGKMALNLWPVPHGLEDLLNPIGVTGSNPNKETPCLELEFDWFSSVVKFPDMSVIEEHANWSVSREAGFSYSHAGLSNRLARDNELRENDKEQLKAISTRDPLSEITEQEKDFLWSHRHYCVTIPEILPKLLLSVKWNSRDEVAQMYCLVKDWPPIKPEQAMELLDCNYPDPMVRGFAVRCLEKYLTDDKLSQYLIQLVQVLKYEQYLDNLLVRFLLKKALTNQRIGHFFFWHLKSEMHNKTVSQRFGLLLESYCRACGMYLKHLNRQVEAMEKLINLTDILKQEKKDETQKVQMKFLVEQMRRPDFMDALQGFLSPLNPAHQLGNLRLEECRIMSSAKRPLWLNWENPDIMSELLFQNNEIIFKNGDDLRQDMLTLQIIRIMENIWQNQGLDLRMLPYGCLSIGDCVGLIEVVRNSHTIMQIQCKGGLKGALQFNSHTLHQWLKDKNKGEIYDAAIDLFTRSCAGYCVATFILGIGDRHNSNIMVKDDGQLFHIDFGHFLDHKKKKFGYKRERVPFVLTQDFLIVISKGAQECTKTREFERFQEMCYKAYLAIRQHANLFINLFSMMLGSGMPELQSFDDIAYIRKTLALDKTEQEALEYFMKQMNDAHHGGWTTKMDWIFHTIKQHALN
Chain of PIK3CA (P27986 whole entry partner): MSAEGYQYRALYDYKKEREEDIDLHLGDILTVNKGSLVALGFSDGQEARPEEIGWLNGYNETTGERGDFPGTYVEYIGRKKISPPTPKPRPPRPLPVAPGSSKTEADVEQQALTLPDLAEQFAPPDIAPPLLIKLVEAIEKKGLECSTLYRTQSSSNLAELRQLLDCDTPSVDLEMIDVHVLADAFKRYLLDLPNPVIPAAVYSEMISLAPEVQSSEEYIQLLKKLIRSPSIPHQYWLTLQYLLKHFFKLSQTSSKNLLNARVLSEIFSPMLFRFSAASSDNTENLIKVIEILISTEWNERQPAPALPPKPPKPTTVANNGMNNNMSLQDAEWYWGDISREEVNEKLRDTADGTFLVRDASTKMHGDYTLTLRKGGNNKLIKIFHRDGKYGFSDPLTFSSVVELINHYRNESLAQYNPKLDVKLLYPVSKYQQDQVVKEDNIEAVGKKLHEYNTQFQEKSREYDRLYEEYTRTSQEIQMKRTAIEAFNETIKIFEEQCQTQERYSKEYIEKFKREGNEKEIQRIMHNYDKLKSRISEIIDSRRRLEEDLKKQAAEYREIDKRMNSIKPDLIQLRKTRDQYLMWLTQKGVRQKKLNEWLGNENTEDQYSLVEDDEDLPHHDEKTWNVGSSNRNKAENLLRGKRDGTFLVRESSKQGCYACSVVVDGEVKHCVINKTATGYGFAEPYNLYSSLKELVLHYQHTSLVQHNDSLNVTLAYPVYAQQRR

Q: Which results are given for `CN(C)C[C@H]1CC[C@H](N2C(=O)NCc3cnc4ccc(-c5cc(Cl)c(O)c(Cl)c5)cc4c32)CC1` [HTH-01-091, 9-(3,5-dichloro-4-hydroxyphenyl)-1-(trans-4-((dimethylamino)methyl)cyclohexyl)-3,4-dihydropyrimido[5,4 c]quinolin-2(1H)-one]?
A: IC50 (PIK3CA): 962 nM; IC50 (CDK7): 1230 nM; IC50 (141 kinases): 42 to 109 nM; reduced inhibition of the select off-target kinases compared with JW-7-25-1 [1]: 20- to 140 fold; remaining activity at 1 µM (MKK6): 99%; remaining activity at 1 µM (JNK1): 97%; remaining activity at 1 µM (p38 beta): 85%; remaining activity at 1 µM (RSK2): 62%; remaining activity at 1 µM (PKB beta): 88%; remaining activity at 1 µM (S6K1): 81%; remaining activity at 1 µM (ROCK 2): 82%; remaining activity at 1 µM (PRK2): 77%; remaining activity at 1 µM (PKC alpha): 79%; remaining activity at 1 µM (PRAK): 78%; % AR (% kinase activity remaining) (PHK): 74%; remaining activity at 1 µM (DAPK1): 15%; remaining activity at 1 µM (GSK3 beta): 86%; remaining activity at 1 µM (CDK2-Cyclin A): 67%; remaining activity at 1 µM (PLK1): 95%; remaining activity at 1 µM (TLK1): 95%; remaining activity at 1 µM (SIK2): 79%; remaining activity at 1 µM (TSSK1): 68%; remaining activity at 1 µM (CK1 gamma 2): 80%; remaining activity at 1 µM (CK2): 23%; remaining activity at 1 µM (DYRK1A): 23%; remaining activity at 1 µM (IKK epsilon): 92%; remaining activity at 1 µM (PIM3): 1%; remaining activity at 1 µM (EIF2AK3): 114%; remaining activity at 1 µM (HIPK3): 25%; remaining activity at 1 µM (MLK3): 54%; remaining activity at 1 µM (IRAK4): 85%; remaining activity at 1 µM (MPSK1): 107%; remaining activity at 1 µM (ULK2): 105%; remaining activity at 1 µM (Src): 54%; remaining activity at 1 µM (CSK): 76%; remaining activity at 1 µM (BRK): 96%; remaining activity at 1 µM (EPH-A2): 66%; remaining activity at 1 µM (EPH-A4): 63%; remaining activity at 1 µM (EPH-B2): 70%; IC50 (MDA-MB-468; [2]): 4000 nM; IC50 (MDA-MB-468; [3]): 2710 nM

Q: Which IC50 (PIK3CA) does the source give for `CC(=O)c1cnc2ccc(-c3cc(Cl)c(O)c(Cl)c3)nc2c1N[C@H]1CC[C@H](CN(C)C)CC1` [OTSSP167] here?
A: 66.5 nM

Q: And the remaining activity at 1 µM (MKK6)?
A: 80%

Q: And the remaining activity at 1 µM (JNK1)?
A: 10%

Q: What about the remaining activity at 1 µM (p38 beta) of the same molecule?
A: 6%

Q: And the remaining activity at 1 µM (RSK2)?
A: 1%

Q: What about the remaining activity at 1 µM (PKB beta) of the same molecule?
A: 24%

Q: And the remaining activity at 1 µM (S6K1)?
A: 2%

Q: What about the remaining activity at 1 µM (ROCK 2) of the same molecule?
A: 49%

Q: What about the remaining activity at 1 µM (PRK2) of the same molecule?
A: 2%

Q: What about the remaining activity at 1 µM (PKC alpha) of the same molecule?
A: 7%

Q: And the remaining activity at 1 µM (PRAK)?
A: 16%

Q: And the “% AR (% kinase activity remaining)” value (PHK)?
A: 3%

Q: And the remaining activity at 1 µM (DAPK1)?
A: 1%

Q: And the remaining activity at 1 µM (GSK3 beta)?
A: 0%

Q: What about the remaining activity at 1 µM (CDK2-Cyclin A) of the same molecule?
A: 2%

Q: And the remaining activity at 1 µM (PLK1)?
A: 3%

Q: What about the remaining activity at 1 µM (TLK1) of the same molecule?
A: 58%

Q: And the remaining activity at 1 µM (SIK2)?
A: 2%

Q: What about the remaining activity at 1 µM (TSSK1) of the same molecule?
A: 1%

Q: And the remaining activity at 1 µM (CK1 gamma 2)?
A: 10%

Q: What about the remaining activity at 1 µM (CK2) of the same molecule?
A: 1%

Q: What about the remaining activity at 1 µM (DYRK1A) of the same molecule?
A: 1%

Q: What about the remaining activity at 1 µM (IKK epsilon) of the same molecule?
A: 2%

Q: And the remaining activity at 1 µM (PIM3)?
A: 1%

Q: What about the remaining activity at 1 µM (EIF2AK3) of the same molecule?
A: 7%

Q: And the remaining activity at 1 µM (HIPK3)?
A: 0%

Q: And the remaining activity at 1 µM (IRAK4)?
A: 7%

Q: What about the remaining activity at 1 µM (MPSK1) of the same molecule?
A: 5%

Q: What about the remaining activity at 1 µM (ULK2) of the same molecule?
A: 4%

Q: What about the remaining activity at 1 µM (Src) of the same molecule?
A: 5%

Q: What about the remaining activity at 1 µM (CSK) of the same molecule?
A: 9%

Q: What about the remaining activity at 1 µM (BRK) of the same molecule?
A: 8%

Q: And the remaining activity at 1 µM (EPH-A2)?
A: 7%

Q: What about the remaining activity at 1 µM (EPH-A4) of the same molecule?
A: 1%

Q: And the remaining activity at 1 µM (EPH-B2)?
A: 1%

Q: What about the “activity against MELK” value (MELK) of the same molecule?
A: subnanomolar

Q: And the IC50 (MDA-MB-468; [2])?
A: 14 nM

Q: What about the IC50 (MDA-MB-468; [3]) of the same molecule?
A: 12 nM
